Entries after “also recorded” stand apart in the source; their conditions may differ. Read-outs that look alike come from different tables or passages of the source.
Columns and labels:
LSD1 = test system: LSD1; parameters: method as in PMID 38742921; details: cited from earlier work
HCT116 cells = assay: CTG cell viability assay; type: cell-based, human; details: HCT116, CellTiter-Glo, 0.0041-10 uM, 24-48 h (Fig. S3)
Protocol: 2.4. CTG cell viability assays
HCT116 cells were seeded onto 96-well plates at a density of 2000 cells/well and allowed 24 h to settle. Cells were then treated with LSD1 inhibitors (0.0041-10 uM) alongside WT, DMSO and cell free control wells for 24-48 h. After this time, plates were equilibrated to RT for 30 mins, then CellTiter-Glo (Promega, G9242) reagent (5 uL/100 uL media) was added. Cells were lysed on an orbital shaker for 10 mins, then incubated at RT for 2 mins to allow luminescence to stabilise, following which luminescence was recorded on a HiDEX Sense microplate reader. To obtained plotted values, luminescence of each tested well was divided by that of the DMSO control, which were plotted against concentration using GraphPad Prism. […] was applied to obtain apparent IC50 values where possible.
Figure S3. Cell viability dose response curves
(1 picture or pasted object on this page, not shown here)

H3K4me2 in HCT116 cells = assay: Histone methylation H3K4me2 by western blot; type: cell-based, human; details: HCT116, TCP series conditions (0.2–20 μM)
Protocol: We next screened 25–33 and SP2509 over a concentration range of 0.1–10 μM in HCT116 cells (obtained from ATCC, CCL-247) and determined LSD1 abundance after 24 hours with an antibody for LSD1 (Fig. S4 ^†). […] Using the same conditions, we also determined the effects of SP2509, 25, 27, 28, 30 and 31 on histone H3 lysine 4 dimethyl (H3K4me2) a validated substrate for LSD1 using a specific antibody for H3K4me2 (Fig. S4 ^†).
Compounds 39–41, 49, 52 and 54 were screened for LSD1 degradation in HCT116 cells using a specific antibody for LSD1. This was performed side-by-side with TCP. Compounds were tested at concentration ranges of 0.2–20 μM and LSD1 abundance was quantified at 24 hours (Fig. S5 ^†). 49, 52 and 54 were also evaluated at 48 and 72 hours. […] We also determined the effects of these compounds on the histone methyl marker H3K4me2 (Fig. S5 and S6 ^†).
(§1) 2.5 Protocols for LSD1 degradation and histone methylation in HCT116 cells HCT116 human colon carcinoma cells were grown in Dulbecco’s Modified Eagle Medium (DMEM) supplemented with Fetal Bovine Serum (FBS, 10% final concentration) and 1x glutamine/penicillin/streptomycin. Cells were incubated at 37 °C and 5% CO2. Cells were treated with compounds (0.1-20 µM) with a final DMSO volume of 0.04%. DMSO (0.04%) treated and untreated (WT) cells were included as controls.
(§2) HCT116 cells were seeded into six well plates (400000 cells per well) and after requisite compound treatment time (24h, 48h, 72h) cells were harvested and either snap-frozen in liquid nitrogen or lysed in lysis buffer (50mM Tris-HCl, 150 mM NaCl, 0.5% NP-40, 0.5% Triton X-100 + protease inhibitor) on ice for 30 mins. This was centrifuged (15000 rpm, 4 °C, 15 mins) and the supernatant collected.
(§3) H2SO4 (0.4 M, equal volume) was added to the pellets for histone extraction and the tubes incubated overnight at 4 °C. Following this, the histone extract was centrifuged (15000 rpm, 4 °C, 15 mins) and the supernatant collected. Protein concentrations of whole cell extract were quantified via Bradford Assay using BIO-RAD Protein Assay Dye Reagent Concentrate.
(§4) Western blots were run on NuPAGE 4-12% Bis-Tris gels, with 30 µg of protein (whole cell extract) or an equivalent volume of histone extract loaded per lane, with all extracts dyed with 4x NuPAGE LDS Sample Buffer. PageRuler Plus Prestained Ladder was used as a reference. Gel electrophoresis was carried out at 140 V for 60-90 mins, following which the proteins were transferred onto nitrocellulose membrane at 30 V for 60 mins. Membranes were blocked in LI-COR Intercept Blocking Buffer overnight at RT on a roller, following which the membrane was probed with primary antibodies for 1 h at RT. The membrane was washed with PBS + 0.1% Tween (3 x 10 mins), then incubated with secondary antibodies for 50 mins at RT. The membrane was washed again (PBS Tween 2 x 10 mins, PBS 1 x 10 mins) following which the blot was visualised with the Odyssey Infrared Imaging System. Image processing and quantification was performed with ImageStudio Lite. […]
(§5) a-tubulin (mouse) – Sigma, t5168 (1:10000 dilution)

[1] = target: T1, HDAC1-CoREST-LSD1 complex (Homo sapiens, UniProt O60341); assay: LSD1 HRP-coupled demethylase assay, TCP analogues; type: biochemical; details: for inhibition at 50 µM: read-out: LSD1 inhibition at 50 μM
T1 construct: full length native LSD1 (UniProt ID: O60341); made in house; host or cells: HEK 293F cells (co-transfection, pcDNA3 vectors)
Protocol: We then evaluated LSD1 inhibition in the LSD1-HDAC1-CoREST complex using the established horseradish peroxidase (HRP) assay.[8]
2. Supplementary Information: Biology
2.1. LSD-HDAC1-CoREST expression and purification
Lysis Buffer (Buffer A) Wash Buffer (Buffer B)
• 50 mM Tris/Cl pH 7.5 • 50 mM Tris/Cl pH 7.5
• 50 mM Potassium Acetate • 50 mM Potassium Acetate […]
Cleavage Buffer (Buffer C) Gel Filtration Buffer (Buffer D)
• 50 mM Tris/Cl pH 7.5 Filtered at vacuum.
• 50 mM Potassium Acetate • 50 mM Tris/Cl pH 7.5
• 5 % v/v Glycerol • 50 mM Potassium Acetate
• 0.5 mM tris(2- • 0.5 mM TCEP carboxyethyl)phosphine (TCEP)
The CoREST ternary complex was comprised of full length native LSD1 (UniProt ID: O60341), full length HDAC1 (UniProt ID: Q13547) and N-terminally truncated RCOR1 (86-485aa) (UniProt ID:
Q9UKL0). Protein constructs were cloned into pcDNA3 vector. The RCOR1 constructs contained an N-terminal (His)10(Flag)3 tag followed by a Tev protease cleavage site. The constructs for ternary complex were co-transfected into suspension-grow HEK 293F cells (Thermofisher Scientific) with polyethylenimine (PEI) (Sigma) and harvested after 48 hours. This section of the procedure was carried out as described previously in literature.11,12
Cell pellets from 1.2 L culture were defrosted, and buffer A (30 mL) was added. The solution was sonicated (Soniprep 150) in an beaker of ice using a 9 mm probe at 10 ampules; operated with 10 […]
Components and concentrations for the HRP-coupled demethylase assay […]
The assay components are shown at their final concentrations per well in the table above. CoREST complex (HDAC 1/RCOR1/LSD1) was added to the assay buffer alongside either DMSO or the relevant inhibitor at the desired concentration on black-walled 96 well plates. Alongside this was another control, with DMSO but no CoREST or inhibitor. Plates were spun to 3000 rpm between each addition of a reagent. Plates were incubated at 20 °C for 30 mins, following which HRP/Amplex Ultrared (1:1 mixture) and peptide was added. Plates were spun, then read on an PerkinElmer 2030 Explorer plate reader, with excitation of 530 nm and […] of 590 nm, with 7 readings taken over […]
Components, where bought in, are listed below:
HRP – Pierce™ Horseradish Peroxidase, Invitrogen
H3K4me2 peptide – Histone H3 dimethyl lysine-4 peptide, Enzo Life Sciences Amplex UltraRed, ThermoFisher Scientific
To the assay buffer was added HRP/AMP in each well to concentrations equal to those in above, following which hydrogen peroxide solution (diluted from 3% hydrogen peroxide solution into a 20 mM stock) was added, in a 1 in 3 dilution series with final concentrations starting from 3 mM.
Negative control wells contained either 100% buffer or as above with no hydrogen peroxide solution.

LSD1 in HCT116 cells = target: T2, LSD1 in HCT116 cells (Homo sapiens, UniProt O60341); assay: LSD1 degradation (LSD1 abundance) by western blot; type: cell-based
T2 construct: host or cells: HCT116
Protocol: Using the same conditions, we also determined the effects of SP2509, 25, 27, 28, 30 and 31 on histone H3 lysine 4 dimethyl (H3K4me2) a validated substrate for LSD1 using a specific antibody for H3K4me2 (Fig. S4 ^†).
Compounds were tested at concentration ranges of 0.2–20 μM and LSD1 abundance was quantified at 24 hours (Fig. S5 ^†). 49, 52 and 54 were also evaluated at 48 and 72 hours. […] We also determined the effects of these compounds on the histone methyl marker H3K4me2 (Fig. S5 and S6 ^†).
as §1, with “with compounds (0.1-20 µM) with a final DMSO volume of 0.04%. DMSO (0.04%) treated and untreated (WT) cells were included as controls.” left out
untreated (WT) cells were included as controls.
as §2
as §3, with “Concentrate. […]” for “Concentrate.”
as §4, with “or” for “Western blots were run on NuPAGE 4-12% Bis-Tris gels, with 30 µg of protein (whole cell extract) or”
as §5

[2] = HCT116, 0.2–20 μM, 24 hours, LSD1 antibody
[3] = complex 50 nM, mean ± SD from three replicates

SMILES	ability to increase H3K4me2 on peptides and nucleosomes (LSD1)	cytotoxic effects in cells (HCT116 cells)	H3K4me2 histone methyl marker (H3K4me2 in HCT116 cells)	inhibition at 50 µM [1]	LSD1 degradation (LSD1 in HCT116 cells; [2])	LSD1 degradation (LSD1 in HCT116 cells; HCT116, 48 and 72 hours)	IC50 [1, 3]	inhibition at 50 µM ([1]; single concentration 50 μM, complex 50 nM, compared to no compound treatment control)	IC50 ([1]; complex 50 nM)
N[C@@H]1C[C@H]1c1ccccc1 (racemic) [TCP, tranylcypromine]	increased H3K4me2 levels	not observed	neither did we observe changes; also recorded: did not increase H3K4me2 levels	–	–	–	–	–	–
COc1ccc(-c2c(-c3ccc(C#N)c(F)c3)nc(N3CCC(N)CC3)n(C)c2=O)cc1F [CC-90011]	increased H3K4me2 levels	–	–	–	–	–	–	–	–
N[C@H]1CC[C@H](N[C@@H]2C[C@H]2c2ccccc2)CC1 [ORY1001, reference compound]	–	not observed	neither did we observe changes; also recorded: did not increase H3K4me2 levels	100%	–	–	–	–	–
Cc1ncsc1-c1ccc(CNC(=O)[C@@H]2C[C@@H](O)CN2C(=O)[C@@H](NC(=O)COCCOCCOCCNC(=O)c2ccc([C@@H]3C[C@H]3N)cc2)C(C)(C)C)cc1 [compound 49]	–	–	no changes	–	no degradation	no degradation	63 nM	100%	–
N[C@@H]1C[C@H]1c1ccc(C(=O)NCCc2ccc(OCCCCCCCCCCCC(=O)NCCNc3cccc4c3C(=O)N(C3CCC(=O)NC3=O)C4=O)cc2)cc1 (some centres unmarked) [compound 54]	–	–	no changes	–	no degradation	no degradation	282 ± 40 nM	–	280 nM

Reference: paper PMC12323867 (RSC Medicinal Chemistry, 2025)
